Results on three substances are retold here after patent US6114517A, “Methods of modulating tumor necrosis factor α-induced expression of cell adhesion molecules” (Isis Pharmaceuticals Inc., priority 1998, dated 2000).

What all share (type): cell-based, human
Experiment [1] relates to Ha-ras mRNA. Put plainly: Ha-ras mRNA levels by Northern blot in HMVEC. On the procedure: (§1) Human dermal microvascular cells (HMVEC-d; Clonetics, San Diego, Calif.) were cultivated in endothelial basal media (EBM, Clonetics) supplemented with 10% fetal bovine serum (HyClone, Logan, Utah). Cells were grown in 100 mm petri dishes until 70-80% confluent, then washed with PBS and OPTI-MEM (Life Technologies, Inc., Gaithersburg, Md.). The cells were then incubated in the presence of OPTI-MEM and […] LIPOFECTIN (a 1:1 (w/w) liposome formulation of the cationic lipid N-[1-(2,3-dioleyloxy)propyl]-n,n,n-trimethylammonium chloride (DOTMA), and dioleoyl phosphotidylethanolamine (DOPE) in membrane filtered water (Life Technologies, Gaithersburg, Md.), per 100 nM of oligonucleotide followed by addition of oligonucleotide at the appropriate concentrations.
(§2) For determination of mRNA levels by Northern blot, total RNA was prepared from cells by the guanidinium isothiocyanate procedure or by the Qiagen RNAEASY method (Qiagen, Santa Clarita, Calif.) at the indicated times after initiation of oligonucleotide treatment. Northern blot analysis was performed as described in Current Protocols in Molecular Biology (Ausubel, F. M., et al., (eds), 1987, Greene Publishing Assoc. and Wiley Interscience, New York). A glyceraldehyde 3-phosphate dehydrogenase (G3PDH) probe was purchased from Clontech (Palo Alto, Calif., Catalog Number 9805-1). RNA was quantified and normalized to G3PDH mRNA levels using a Molecular Dynamic PHOSPHORIMAGER (Sunnyvale, Calif.).
ISIS 15168 (SEQ ID NO. 4) is a 2'-O-methoxyethyl mixed backbone chimeric antisense oligonucleotide designed to hybridize with sequences contained within the human Ha-ras mRNA. To determine the effect of ISIS 15168 (SEQ ID NO. 4) on Ha-ras expression in endothelial cells, HMVEC were treated, as described in Example 2, with oligonucleotide and northern blotting was used to measure Ha-ras mRNA levels. A Ha-ras probe was generated from the plasmid, pbc-N1 (American Type Culture Collection, Manassas, Va.; catalog #41001), following the supplied instructions.

Experiment [2] deals with Ha-ras protein. Put plainly: Ha-ras protein levels, immunoprecipitation and Western blot in HMVEC. To be noted: for Ha-ras protein expression: 48 hours following treatment. Here is the method: (§3) For determination of protein levels by Western blot, cellular extracts were prepared using […] of RIPA extraction buffer per 100-mm dish. The protein concentration was quantified by Bradford assay using the BioRad kit (BioRad, Hercules, Calif.). Equal amounts of protein were loaded on 10% or 12% SDS-PAGE mini-gel (Novex, San Diego, Calif.). Once transferred to PVDF membranes (Millipore, Bedford, Mass.), the membranes were then treated for a minimum of 2 hours with specific primary antibody followed by incubation with secondary antibody conjugated to HRP. The results were visualized by Enhanced Chemiluminescent (ECL) detection (New England BioLab, Beverly, Mass.). In some experiments, the blots were stripped in stripping buffer (2% SDS, 12.5 mM Tris, pH 6.8) for 30 minutes at 50° C. After extensive washing, the blots were blocked and blotted with different primary antibody.
To examine the effect of ISIS 15168 (SEQ ID NO. 4) on Ha-ras protein levels, total ras protein was immunoprecipitated using a pan-ras monoclonal antibody (Oncogene Science, Cambridge, Mass.). The precipitated proteins were analyzed by SDS-PAGE, and Ha-ras protein levels were determined by western blot using a monoclonal antibody specific for Ha-ras (Oncogene Science, Cambridge, Mass.). […] The kinetics of Ha-ras reduction was slower than that of c-raf. The control oligonucleotide, ISIS 17552 (SEQ ID NO. 5), had no effect on Ha-ras protein level. The same blot was stripped and blotted a second time with a Ki-ras-specific antibody (Oncogene Science, Cambridge, Mass.).
A general note: Immunoblotting shows a protein as a band on a membrane.

Experiment [3] has as its system Ki-ras protein. Kind of experiment: Ki-ras protein levels by Western blot in HMVEC. The note with it: same blot stripped and blotted with Ki-ras-specific antibody. On the procedure: as §3
To examine the effect of ISIS 15168 (SEQ ID NO. 4) on Ha-ras protein levels, total ras protein was immunoprecipitated using a pan-ras monoclonal antibody (Oncogene Science, Cambridge, Mass.). The precipitated proteins were analyzed by SDS-PAGE, and Ha-ras protein levels were determined by western blot using a monoclonal antibody specific for Ha-ras (Oncogene Science, Cambridge, Mass.). […] The kinetics of Ha-ras reduction was slower than that of c-raf. […]

Experiment [4] concerns c-raf mRNA. Kind of experiment: c-raf mRNA levels by Northern blot in HMVEC. On the procedure:
as §1, §2
ISIS 12854 (SEQ ID NO. 2) is a 2'-O-methoxyethyl mixed backbone chimeric antisense oligonucleotide designed to hybridize with 3'-untranslated sequences contained within human c-raf mRNA. To determine whether this antisense oligonucleotide is effective as a c-raf inhibitor in endothelial cells, human dermal microvascular cells (HMVEC) were treated with ISIS 12854 (SEQ ID NO. 2) as described in Example 2. C-raf mRNA and protein expression was examined by northern and Western blot analysis. The c-raf cDNA probe was generated from the plasmid, p627 (American Type Culture Collection, Manassas, Va.; catalog #41050), following the supplied instructions. The c-raf antibody was obtained from Transduction Laboratories, Inc. (Lexington, Ky.).

Experiment [5] concerns A-raf protein. Put plainly: A-raf protein expression by Western blot in HMVEC. To be noted: same blot stripped and blotted with antibody against A-raf. On the procedure: as §3
Reduction of c-raf protein levels also occurred following oligonucleotide treatment. Reduction in protein expression was first detectable 24 hours after treatment and maximal reduction of c-raf protein levels was achieved 48 hours after treatment with 150 nM oligonucleotide. Reduction of c-raf protein levels persisted up to 72 hour following initial treatment.

In the case of “ToCoCsGsTsCsAsTsCsGsCsTsCoCoToCoAoGoGoG [ISIS 15168]”, the “% mRNA Expression (Ha-ras)” value in experiment [1] (1 nM) is recorded as 61%; in experiment [1] (5 nM), 44%; in experiment [1] (25 nM), 19%; in experiment [1] (50 nM), 10%; in experiment [1] (100 nM) it was 9%. For the same substance, the “% mRNA Inhibition (Ha-ras)” value is 39% in experiment [1] (1 nM); 56% in experiment [1] (5 nM); 81% in experiment [1] (25 nM); 90% in experiment [1] (50 nM); 91% in experiment [1] (100 nM). For the same substance, in experiment [2], the Ha-ras protein expression result was “dose-dependent reduction”. Moreover, the “persistence of reduction of Ha-ras protein” value in experiment [2] (following initial treatment) was “up to 72 hours”. Moreover, in experiment [3], the “effect on Ki-ras protein levels” value is given as “No effect”.
For orientation: IC50 means the midpoint of a concentration-inhibition curve. Regarding “ToCoCoCoGoCsCsTsGsTsGsAsCsAsToGoCoAoToT [ISIS 12854]”, the “% mRNA Expression (c-raf)” value in experiment [4] (0.5 nM) is reported as 67%; in experiment [4] (2.5 nM) it was 31%; in experiment [4] (10 nM), 15%; in experiment [4] (50 nM), 10%; in experiment [4] (100 nM) it was 13%; in experiment [4] (200 nM), 3%. The “% mRNA Inhibition (c-raf)” value is given as 33% in experiment [4] (0.5 nM); 69% in experiment [4] (2.5 nM); 85% in experiment [4] (10 nM); 90% in experiment [4] (50 nM); 87% in experiment [4] (100 nM); 97% in experiment [4] (200 nM). In addition, the IC50 in experiment [4] (read-out: IC50 for c-raf mRNA reduction) was roughly 2.5 nM. Further, the A-raf protein expression entry in experiment [5] was “largely unaffected”.
“ToCoAsGsTsAsAsTsAsGsCsCsCoCoAoCoAoToGoG [ISIS 17552, reference compound]”: the “% mRNA Expression (Ha-ras)” value in experiment [1] (1 nM) was 103%; in experiment [1] (5 nM) it was 115%; in experiment [1] (25 nM), 96%; in experiment [1] (50 nM), 109%; in experiment [1] (100 nM) it was 105%. The “% mRNA Inhibition (Ha-ras)” value in experiment [1] (25 nM) worked out at 4%. For the same substance, in experiment [2], the Ha-ras protein expression result is “no effect”. Also, the “effect on Ki-ras protein levels” value in experiment [3] is given as “No effect”.
